Source: patent publication US8198452B2, “Polymorphic forms and process” (Merck Patent Gesellschaft MIT Beschränkter Haftung, priority 2006, dated 2012)

Key:
Assay type in all cases: physicochemical
[1] = stability of the basic, non-salt form
[2] = hygroscopicity of crystalline forms
[3] = thermodynamic stability of crystalline forms; settings: versus form A2, A3 (b74 also the amorphous form, especially at room temperature)
[4] = chemical stability (thermal stability and light stability)
Text: The expression chemical stability includes, but is not limited to, thermal stability and light stability.

SMILES | stability in basic, i.e. non-salt, form [1] | hygroscopicity [2] | hygroscopicity compared with other forms ([2]; versus form A2, A3 and the amorphous form, especially at room temperature) | thermodynamic stability compared with other forms [3] | chemical stability (shelf-life, thermal stability and light stability) [4]
CN(C)CCNC(=O)NC[C@H]1CC[C@@H]2[C@H](O1)c1cc(C(F)(F)F)ccc1N[C@H]2c1ccccc1 [compound of formula II, 1-(2-Dimethylamino-ethyl)-3-((2R,4aS,5R,10bS)-5-phenyl-9-trifluoromethyl-3,4,4a,5,6,10b-hexahydro-2H-pyrano[3,2-c]quinolin-2-ylmethyl)-urea] | especially stable | – | – | – | –
CN(C)CCNC(=O)NC[C@H]1CC[C@@H]2[C@H](O1)c1cc(C(F)(F)F)ccc1N[C@H]2c1ccccc1 [Form A1, 1-(2-Dimethylamino-ethyl)-3-((2R,4aS,5R,10bS)-5-phenyl-9-trifluoromethyl-3,4,4a,5,6,10b-hexahydro-2H-pyrano[3,2-c]quinolin-2-ylmethyl)-urea] | – | essentially non-hygroscopic | less hygroscopic than form A2, A3 and the amorphous form | thermodynamically more stable than form A2 and A3 | better chemical stability
